Where two headings read alike, the source gives them in different places.
Experiments:
[1] = rcm bond
hepatitis C replicon = hepatitis C replicon EC50 assay; assay type: cell-based; settings: Hepatitis C virus; hepatitis C replicon; read-out: EC50
Summary of the method: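 Buffer: 50 mM Tris-HCl pH 7.5, 15% glycerol, 0.6 mM LDAO, 25 μM NS4A peptide, 10 mM DTT, at 23° C. (ambient). EC50 follows a referenced published replicon protocol.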

NS3/NS4 complexes = NS3/NS4 complexes (Hepatitis C virus genotype 1a, UniProt P27958); test: NS3/NS4 inhibition assay (IC50); assay type: biochemical; settings: NS3/NS4 activity; 23° C., 25 μM NS4A peptide
Chain of NS3/NS4 complexes (P27958 1027-1657, one chain of several): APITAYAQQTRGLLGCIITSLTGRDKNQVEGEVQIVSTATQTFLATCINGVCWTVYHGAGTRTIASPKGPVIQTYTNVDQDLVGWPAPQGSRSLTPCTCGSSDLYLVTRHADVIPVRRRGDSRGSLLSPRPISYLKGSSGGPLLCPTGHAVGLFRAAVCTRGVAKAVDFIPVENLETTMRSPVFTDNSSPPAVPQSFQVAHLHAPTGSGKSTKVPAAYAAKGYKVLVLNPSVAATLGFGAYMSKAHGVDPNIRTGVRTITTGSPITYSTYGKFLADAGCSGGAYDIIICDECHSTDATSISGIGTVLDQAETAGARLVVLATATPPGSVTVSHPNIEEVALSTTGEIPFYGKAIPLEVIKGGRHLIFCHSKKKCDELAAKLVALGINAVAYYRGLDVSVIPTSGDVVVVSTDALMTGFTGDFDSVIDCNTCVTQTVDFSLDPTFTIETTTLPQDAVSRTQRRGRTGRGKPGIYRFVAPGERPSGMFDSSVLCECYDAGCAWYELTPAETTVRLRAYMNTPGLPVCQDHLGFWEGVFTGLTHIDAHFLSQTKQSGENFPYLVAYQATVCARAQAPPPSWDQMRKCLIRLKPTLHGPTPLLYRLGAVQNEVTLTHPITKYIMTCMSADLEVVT
Summary of the method: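 Read-outs are IC50 for inhibition of the NS3/NS4 complex and EC50 in an HCV replicon system. Biochemical runs use 23° C. and a 50 mM Tris-HCl (pH 7.5) buffer with 15% glycerol, 10 mM DTT, 0.6 mM LDAO and 25 μM NS4A peptide.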

Row | Structure (SMILES) | ring closure, yield of all isomers ([1]; from C=CCCCCC[C@H](Nc1ccc(C(F)(F)F)cc1)C(=O)N1C[C@H](Oc2ncc3ncn(C(C)C)c3n2)C[C@H]1C(=O)N[C@]1(C(=O)NS(=O)(=O)C2(C)CC2)C[C@H]1C=C, Zhan catalyst, toluene, 7.78 mM, 65.0 °C, 1.5 h) | ring closure, yield of all isomers ([1]; from C=CCCCCN(C(=O)[C@@H]1C[C@@H](O)C[C@H]1C(=O)N[C@]1(C(=O)OCC)C[C@H]1C=C)c1ccccc1, Hoveyda-Grubbs 2nd generation, DCE, 0.167 mM, 83.0 °C, 16.0 h) | ring closure, yield of all isomers ([1]; from C=CCCCCC[C@H](Nc1cccc(F)c1)C(=O)N1C[C@H](Oc2nc(-c3nc(C(C)C)cs3)nc3c(C)c(OC)ccc23)C[C@H]1C(=O)N[C@]1(C(=O)NS(=O)(=O)C2(C)CC2)C[C@H]1C=C, Zhan catalyst, toluene, 7.24 mM, 65.0 °C, 0.67 h) | EC50 (hepatitis C replicon) | IC50 (NS3/NS4 complexes)
1 | CC(C)n1cnc2cnc(O[C@@H]3C[C@H]4C(=O)N[C@]5(C(=O)NS(=O)(=O)C6(C)CC6)C[C@H]5C=CCCCCC[C@H](Nc5ccc(C(F)(F)F)cc5)C(=O)N4C3)nc21 | 29% | – | – | – | –
2 | CCOC(=O)[C@@]12C[C@H]1C=CCCCCN(c1ccccc1)C(=O)[C@@H]1C[C@@H](O)C[C@H]1C(=O)N2 | – | 94.6% | – | – | –
3 | COc1ccc2c(O[C@@H]3C[C@H]4C(=O)N[C@]5(C(=O)NS(=O)(=O)C6(C)CC6)C[C@H]5C=CCCCCC[C@H](Nc5cccc(F)c5)C(=O)N4C3)nc(-c3nc(C(C)C)cs3)nc2c1C | – | – | 24% | – | –
4 | CC(C)n1c(O[C@@H]2C[C@H]3C(=O)N[C@]4(C(=O)NS(=O)(=O)N(C)C)C[C@H]4/C=C\CCCCC[C@H](NC(=O)OC(C)(C)C)C(=O)N3C2)nc2c(-c3nc(-c4ccc(-c5ccccc5)cc4)cs3)cccc21 [Compound 1753] | – | – | – | 10 to 100 nM | < 10 nM
5 | Cc1ccc(-c2csc(-c3cccc4c3nc(O[C@@H]3C[C@H]5C(=O)N[C@]6(C(=O)NS(=O)(=O)N(C)C)C[C@H]6/C=C\CCCCC[C@H](NC(=O)OC(C)(C)C)C(=O)N5C3)n4C(C)C)n2)c(C)c1 [Compound 1754] | – | – | – | 10 to 100 nM | < 10 nM
6 | CC(C)n1c(O[C@@H]2C[C@H]3C(=O)N[C@]4(C(=O)NS(=O)(=O)N(C)C)C[C@H]4/C=C\CCCCC[C@H](NC(=O)OC(C)(C)C)C(=O)N3C2)nc2c(-c3nc(Cc4ccc(F)c(F)c4)cs3)cccc21 [Compound 1755] | – | – | – | 10 to 100 nM | < 10 nM
7 | CC(C)n1c(O[C@@H]2C[C@H]3C(=O)N[C@]4(C(=O)NS(=O)(=O)N(C)C)C[C@H]4/C=C\CCCCC[C@H](NC(=O)OC(C)(C)C)C(=O)N3C2)nc2c(-c3nc(Cc4cc(F)cc(F)c4)cs3)cccc21 [Compound 1756] | – | – | – | 10 to 100 nM | < 10 nM
8 | COc1ccc(Cc2csc(-c3cccc4c3nc(O[C@@H]3C[C@H]5C(=O)N[C@]6(C(=O)NS(=O)(=O)N(C)C)C[C@H]6/C=C\CCCCC[C@H](NC(=O)OC(C)(C)C)C(=O)N5C3)n4C(C)C)n2)cc1OC [Compound 1757] | – | – | – | < 10 nM | < 10 nM
9 | CC(C)n1c(O[C@@H]2C[C@H]3C(=O)N[C@]4(C(=O)NS(=O)(=O)N(C)C)C[C@H]4/C=C\CCCCC[C@H](NC(=O)OC(C)(C)C)C(=O)N3C2)nc2c(-c3nc(Cc4cccc(F)c4)cs3)cccc21 [Compound 1758] | – | – | – | 10 to 100 nM | < 10 nM
10 | CC(C)n1c(O[C@@H]2C[C@H]3C(=O)N[C@]4(C(=O)NS(=O)(=O)N(C)C)C[C@H]4/C=C\CCCCC[C@H](NC(=O)OC(C)(C)C)C(=O)N3C2)nc2c(-c3nc(Cc4ccc(F)cc4)cs3)cccc21 [Compound 1759] | – | – | – | < 10 nM | < 10 nM
11 | CC(C)n1c(O[C@@H]2C[C@H]3C(=O)N[C@]4(C(=O)NS(=O)(=O)N(C)C)C[C@H]4/C=C\CCCCC[C@H](NC(=O)OC(C)(C)C)C(=O)N3C2)nc2c(-c3nc(Cc4ccccc4Cl)cs3)cccc21 [Compound 1760] | – | – | – | 10 to 100 nM | < 10 nM
12 | CC(C)n1c(O[C@@H]2C[C@H]3C(=O)N[C@]4(C(=O)NS(=O)(=O)N(C)C)C[C@H]4/C=C\CCCCC[C@H](NC(=O)OC(C)(C)C)C(=O)N3C2)nc2c(-c3nc(Cc4cccc(Cl)c4)cs3)cccc21 [Compound 1761] | – | – | – | 10 to 100 nM | < 10 nM
13 | CC(C)n1c(O[C@@H]2C[C@H]3C(=O)N[C@]4(C(=O)O)C[C@H]4/C=C\CCCCC[C@H](Nc4ccc(F)cc4)C(=O)N3C2)nc2c(-c3nc(C4CCCC4)cs3)cccc21 [Compound 1762] | – | – | – | > 100 nM | 10 to 100 nM
14 | CC(C)n1c(O[C@@H]2C[C@H]3C(=O)N[C@]4(C(=O)O)C[C@H]4/C=C\CCCCC[C@H](Nc4cccc(F)c4)C(=O)N3C2)nc2c(-c3nc(C4CCCC4)cs3)cccc21 [Compound 1763] | – | – | – | > 100 nM | 10 to 100 nM
15 | CC(C)n1c(O[C@@H]2C[C@H]3C(=O)N[C@]4(C(=O)NS(=O)(=O)C5(C)CC5)C[C@H]4/C=C\CCCCC[C@H](NC(=O)OC(C)(C)C)C(=O)N3C2)nc2c(-c3nc4c(s3)CCC4)cccc21 [Compound 1765] | – | – | – | < 10 nM | < 10 nM
16 | CC(C)n1c(O[C@@H]2C[C@H]3C(=O)N[C@]4(C(=O)NS(=O)(=O)N(C)C)C[C@H]4/C=C\CCCCC[C@H](NC(=O)OC(C)(C)C)C(=O)N3C2)nc2c(-c3nc(C4CCC4)cs3)cccc21 [Compound 1766] | – | – | – | < 10 nM | < 10 nM
17 | CC(C)n1c(O[C@@H]2C[C@H]3C(=O)N[C@]4(C(=O)NS(=O)(=O)C5(C)CC5)C[C@H]4/C=C\CCCCC[C@H](NC(=O)OC(C)(C)C)C(=O)N3C2)nc2c(-c3nc(Cc4ccccc4)cs3)cccc21 [Compound 1767] | – | – | – | < 10 nM | < 10 nM
18 | CC(C)n1c(O[C@@H]2C[C@H]3C(=O)N[C@]4(C(=O)NS(=O)(=O)N(C)C)C[C@H]4/C=C\CCCCC[C@H](NC(=O)OC(C)(C)C)C(=O)N3C2)nc2c(-c3nc(Cc4ccccc4)cs3)cccc21 [Compound 1768] | – | – | – | < 10 nM | < 10 nM
19 | CC(C)n1c(O[C@@H]2C[C@H]3C(=O)N[C@]4(C(=O)NS(=O)(=O)C5(C)CC5)C[C@H]4/C=C\CCCCC[C@H](NC(=O)OC(C)(C)C)C(=O)N3C2)nc2c(-c3nc(C4CCCCC4)cs3)cccc21 [Compound 1769] | – | – | – | < 10 nM | < 10 nM
20 | CC(C)n1c(O[C@@H]2C[C@H]3C(=O)N[C@]4(C(=O)NS(=O)(=O)N(C)C)C[C@H]4/C=C\CCCCC[C@H](NC(=O)OC(C)(C)C)C(=O)N3C2)nc2c(-c3nc(C4CCCCC4)cs3)cccc21 [Compound 1770] | – | – | – | 10 to 100 nM | < 10 nM
21 | CC(C)n1c(O[C@@H]2C[C@H]3C(=O)N[C@]4(C(=O)NS(=O)(=O)C5(C)CC5)C[C@H]4/C=C\CCCCC[C@H](NC(=O)OC(C)(C)C)C(=O)N3C2)nc2c(-c3nc(C4CCC4)cs3)cccc21 [Compound 1771] | – | – | – | < 10 nM | < 10 nM
22 | CC(C)n1c(O[C@@H]2C[C@H]3C(=O)N[C@]4(C(=O)NS(=O)(=O)N(C)C)C[C@H]4/C=C\CCCCC[C@H](NC(=O)OC(C)(C)C)C(=O)N3C2)nc2c(-c3nc(CC4CCCCC4)cs3)cccc21 [Compound 1772] | – | – | – | 10 to 100 nM | < 10 nM
23 | CC(C)n1c(O[C@@H]2C[C@H]3C(=O)N[C@]4(C(=O)NS(=O)(=O)C5(C)CC5)C[C@H]4/C=C\CCCCC[C@H](NC(=O)OC(C)(C)C)C(=O)N3C2)nc2c(-c3nc(CC4CCCCC4)cs3)cccc21 [Compound 1773] | – | – | – | < 10 nM | < 10 nM
24 | CC(C)n1c(O[C@@H]2C[C@H]3C(=O)N[C@]4(C(=O)NS(=O)(=O)C5(C)CC5)C[C@H]4/C=C\CCCCC[C@H](NC(=O)OC(C)(C)C)C(=O)N3C2)nc2c(-c3nc4c(s3)CCCC4(C)C)cccc21 [Compound 1774] | – | – | – | 10 to 100 nM | < 10 nM
25 | CC(C)n1c(O[C@@H]2C[C@H]3C(=O)N[C@]4(C(=O)NS(=O)(=O)N(C)C)C[C@H]4/C=C\CCCCC[C@H](NC(=O)OC(C)(C)C)C(=O)N3C2)nc2c(-c3nc4c(s3)CCCC4(C)C)cccc21 [Compound 1775] | – | – | – | 10 to 100 nM | < 10 nM
26 | CC(C)n1c(O[C@@H]2C[C@H]3C(=O)N[C@]4(C(=O)NS(=O)(=O)N(C)C)C[C@H]4/C=C\CCCCC[C@H](NC(=O)OC(C)(C)C)C(=O)N3C2)nc2c(-c3nc(C4CC4)cs3)cccc21 [Compound 1776] | – | – | – | < 10 nM | < 10 nM
27 | CC(C)n1c(O[C@@H]2C[C@H]3C(=O)N[C@]4(C(=O)NS(=O)(=O)C5(C)CC5)C[C@H]4/C=C\CCCCC[C@H](NC(=O)OC(C)(C)C)C(=O)N3C2)nc2c(-c3nc(C4CC4)cs3)cccc21 [Compound 1777] | – | – | – | < 10 nM | < 10 nM
28 | CC(C)n1c(O[C@@H]2C[C@H]3C(=O)N[C@]4(C(=O)NS(=O)(=O)C5(C)CC5)C[C@H]4/C=C\CCCCC[C@H](NC(=O)OC(C)(C)C)C(=O)N3C2)nc2ncccc21 [Compound 1779] | – | – | – | 10 to 100 nM | < 10 nM
29 | CC(C)n1c(O[C@@H]2C[C@H]3C(=O)N[C@]4(C(=O)NS(=O)(=O)N(C)C)C[C@H]4/C=C\CCCCC[C@H](NC(=O)OC(C)(C)C)C(=O)N3C2)nc2ncccc21 [Compound 1780] | – | – | – | 10 to 100 nM | < 10 nM
